The subject of the test is IL-2. Put plainly: PHA-IL2 (cell activation and cytokine analysis). It is filed as cell-based. Conditions: 50% inhibition concentration class. The gist of the method:
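Cells were seeded in 96-well plates at 1.0-2.0×10^6 cells/ml in 150 ul of RPMI containing 0.5% fetal calf serum. Test compounds, at up to ≤20 uM, were preincubated with the cells for 30 minutes, then phytohemagglutinin (PHA) was added and cultures were stimulated for 24-48 hours at 37 degrees C./5% CO2. Supernatant IL-2 was then quantified by standard ELISA.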

Consider `COc1c(F)cc(F)cc1-c1ccccc1OCC(=O)N1CCC(CCc2ccc3c(c2)OCO3)CC1` [Compound 242], for which the IC50 fell in the range of 1 to 10 µM.

`O=C(O)c1ccc(-c2ccccc2OCC(=O)N2CCC(CCc3ccc4c(c3)OCO4)CC2)cc1` [Compound 157] registered a half-maximal inhibitory concentration (IC50) of 10 to 50 µM.

The molecule `N#Cc1ccc(-c2cc(C#N)ccc2OCC(=O)N2CCC(CCc3ccc4c(c3)OCO4)CC2)cc1` [Compound 420] returned a half-inhibitory concentration (IC50) below 1 µM. Turning to `O=C(COc1cccnc1-c1ccc(F)nc1)N1CCC(CCc2ccc3c(c2)OCO3)CC1` [Compound 340], the concentration for half-maximal inhibition (IC50) lay in the range of 1 to 10 µM. As for `COCc1ccc(CCC2CCN(C(=O)COc3ccccc3-c3ccc(F)cc3O)CC2)cc1` [Compound 308], the IC50 was below 1 µM. Molecule `O=C(COc1ccccc1-c1cccc(C(F)(F)F)c1)N1CCC(CCc2ccc3c(c2)OCO3)CC1` [Compound 204] registered an IC50 below 1 µM. Regarding `CC(Oc1ccccc1-c1ccccc1)C(=O)N1CCC(CCc2ccc3c(c2)OCCCO3)CC1` (stereo not shown) [Compound 209], the concentration for half-maximal inhibition (IC50) is below 1 µM.

Take `CC(C)Oc1cccc(CCC2CCN(C(=O)COc3cccnc3-c3ccc(C#N)cc3)CC2)c1` [Compound 411]: the IC50 was below 1 µM. Take `O=C(c1ccccc1)c1ccc(-c2ccccc2OCC(=O)N2CCC(CCc3cc(Br)c(O)c(Br)c3)CC2)cc1` [Compound 332]: the IC50 lay within 1 to 10 µM.

`O=C(COc1ccccc1-c1cccc(Cl)c1)N1CCC(CCc2ccc3c(c2)OCO3)CC1` [Compound 201] gave an IC50 below 1 µM. In turn, `CC1CC(CCc2ccccc2)CCN1C(=O)COc1ccccc1-c1ccc(F)cc1O` (stereo not shown) [Compound 303] registered an IC50 of 1 to 10 µM. `O=C(COc1ccccc1-c1ccccc1O)N1CCC(CCc2ccc(O)cc2)CC1` [Compound 282] displayed an IC50 below 1 µM. With `Cc1nc2cc(-c3ccccc3OCC(=O)N3CCC(CCc4ccc5c(c4)OCO5)CC3)ccc2[nH]1` [Compound 388], the IC50 was below 1 µM. Next, `N#Cc1ccc(-c2cc(C(=O)O)ccc2OCC(=O)N2CCC(CCc3ccccc3)CC2)cc1` [Compound 315]: 1 to 10 µM; `CC(C)Oc1ccccc1CCC1CCN(C(=O)COc2ccccc2-c2ccc(C#N)cc2)CC1` [Compound 427]: below 1 µM. `O=C(COc1ccccc1-c1ccccc1O)N1CCC(CCc2ccc3c(c2)OCCO3)CC1` [Compound 295] showed a half-maximal inhibitory concentration (IC50) of 1 to 10 µM. For `COc1cc(CCC2CCN(C(=O)COc3cccnc3-c3ccc(F)cc3O)CC2)ccc1OCCN1CCOCC1` [Compound 381], the concentration for half-maximal inhibition (IC50) lay in the range of 10 to 50 µM.

For `O=C(COc1ccccc1-c1cc(F)c(F)c(F)c1)N1CCC(CCc2ccc3c(c2)OCO3)CC1` [Compound 200], the IC50 is below 1 µM. In the case of `COc1cccc(CCC2CCN(C(=O)COc3ccc(S(N)(=O)=O)cc3-c3ccc(C#N)cc3)CC2)c1` [Compound 385], the IC50 was 1 to 10 µM. Next, `Nc1ccc(/C=C/C2CCN(C(=O)COc3ccccc3-c3ccccc3)CC2)cn1` [Compound 252]: 10 to 50 µM; `O=C(c1ccccc1)c1ccc(-c2ccccc2OCC(=O)N2CCC(CCc3ccc(O)cc3)CC2)cc1` [Compound 314]: below 1 µM. Regarding `CC1Oc2ccc(CCC3CCN(C(=O)COc4ccccc4-c4ccccc4)CC3)cc2OC1C` (stereo not shown) [Compound 256], the 50% inhibitory concentration (IC50) was below 1 µM. Consider `COc1cccc(-c2ccccc2OCC(=O)N2CCC(CCc3ccc4c(c3)OCO4)CC2)c1` [Compound 163], for which the IC50 fell in the range of 1 to 10 µM.

Molecule `O=C(COc1cccnc1-c1ccc(F)cc1O)N1CCC(CCc2ccccc2)CC1` [Compound 330] gave an IC50 of 1 to 10 µM. The molecule `O=C(COc1ccccc1-c1ccc(O)cc1)N1CCC(CCc2ccc3c(c2)OCO3)CC1` [Compound 170] yielded a 50% inhibitory concentration (IC50) of 1 to 10 µM. Next, `O=C(COc1ccccc1-c1ccccc1F)N1CCC(CCc2ccc3c(c2)OCO3)CC1` [Compound 177]: 1 to 10 µM.

Molecule `COc1cccc(CCC2CCN(C(=O)COc3ccc(C#N)cc3-c3ccc(F)cc3O)CC2)c1` [Compound 352] came in with an IC50 below 1 µM. The value for `CC(C)NC(=O)c1ccc(OCC(=O)N2CCC(CCc3ccccc3)CC2)c(-c2ccc(F)cc2O)c1` [Compound 319] was 10 to 50 µM.

These data come from US10899747B2, “Biaryl piperidine amide compounds and methods of use thereof” (Athenex, Inc., priority 2017, dated 2021).
